{
  "source": "ChEMBL document CHEMBL3507680",
  "about": "“University of Dundee, Gates Library screen for HepG2 cell viability”",
  "data": [
    {"assay": "Human HepG2 cell viability assay in 384 well format", "format": "toxicity, cell-based", "parameters": "dose 125 nL, time 70.5 hour; concentration not given beside the values", "details": "HepG2 cells, read-out: Inhibition", "units": {"cytotoxicity at 70.5 h": "%"}, "values": [
      {"smiles": "Cc1nc(N2CCOCC2)nc2c1CCN(c1nccs1)CC2", "cytotoxicity at 70.5 h": -5.03},
      {"smiles": "Cc1ccc(N2CC[C@@H]3O[C@@H](c4ccncn4)C[C@H]3C2)nn1", "cytotoxicity at 70.5 h": -3.76},
      {"smiles": "O=C1[C@H]2CN(c3ncc(F)cn3)C[C@H]2CN1CC1CC1", "cytotoxicity at 70.5 h": 5.29},
      {"smiles": "O=S(=O)(C1CC1)N1CCOC2(CCCN(c3ccccc3)C2)C1", "note": "(stereo not given)", "cytotoxicity at 70.5 h": 7.04},
      {"smiles": "Cc1cnc(N2C[C@@H]3CCN(CC4CC4)C(=O)[C@H]3C2)nc1", "cytotoxicity at 70.5 h": -4.98},
      {"smiles": "O=C(c1ccc(F)cc1)N1C[C@@H]2CN(c3ncccn3)C[C@@H]2C1", "cytotoxicity at 70.5 h": -6.82},
      {"smiles": "O=S(=O)(C1CC1)N1CCC2(CCCN(c3ncc(F)cn3)C2)C1", "note": "(stereo not given)", "cytotoxicity at 70.5 h": -11.2},
      {"smiles": "Cn1cnc2c1C(C(=O)N1CCCC1)N(S(C)(=O)=O)CC2", "note": "(stereo not given)", "cytotoxicity at 70.5 h": -7.56},
      {"smiles": "O=C(CO)N1CC2(CCN(c3ccccc3)C2)C1", "cytotoxicity at 70.5 h": -6.59},
      {"smiles": "CC(=O)N1CCC2(CC1)c1ncc(-c3ccccc3)n1CCN2C(C)=O", "cytotoxicity at 70.5 h": -5.58},
      {"smiles": "CN(C)c1nc(N2CCCC2)nc2c1CCN(C(=O)c1ccoc1)CC2", "cytotoxicity at 70.5 h": 0.617},
      {"smiles": "O=C1NCCO[C@H]2CN(C(=O)CCc3ccc(Cl)cc3)CC[C@@H]12", "cytotoxicity at 70.5 h": -17.3},
      {"smiles": "O=C1CC[C@@H]2[C@@H](CCN2C(=O)C2CCOCC2)N1CC1CC1", "cytotoxicity at 70.5 h": -8.18},
      {"smiles": "CCOc1ccc(CCC(=O)N2CC[C@H]3C(=O)NCCO[C@H]3C2)cc1", "cytotoxicity at 70.5 h": -10.6},
      {"smiles": "O=C1CC(c2cccs2)Cc2[nH]c(=O)ccc21", "note": "(stereo not given)", "cytotoxicity at 70.5 h": -7.47},
      {"smiles": "O=C1CC(c2cccs2)Cc2[nH]c(=O)c(C(=O)NC3CCCC3)cc21", "note": "(stereo not given)", "cytotoxicity at 70.5 h": -12.4},
      {"smiles": "COc1cc(CCO)c(OC)c2c1OCO2", "cytotoxicity at 70.5 h": -7.84},
      {"smiles": "COc1cccc(C2SCC(=O)Nc3ccsc32)c1OC", "note": "(stereo not given)", "cytotoxicity at 70.5 h": 1.7},
      {"smiles": "O=C1CC(c2ccc(C(=O)O)cc2)c2ncn(-c3cccnc3)c2N1", "note": "(stereo not given)", "cytotoxicity at 70.5 h": -2.41},
      {"smiles": "COc1cc(C2SCC(=O)Nc3ccsc32)cc(OC)c1O", "note": "(stereo not given)", "cytotoxicity at 70.5 h": -4.76},
      {"smiles": "COCCNC(=O)c1cc2c(nc1O)CC(c1cccs1)CC2=O", "note": "(stereo not given)", "cytotoxicity at 70.5 h": -12.9},
      {"smiles": "CC1CCc2nc(O)c(C(=O)NCc3ccccn3)cc2C1", "note": "(stereo not given)", "cytotoxicity at 70.5 h": -5.86},
      {"smiles": "CC1CCc2nc(O)c(C(=O)NCCc3cccs3)cc2C1", "note": "(stereo not given)", "cytotoxicity at 70.5 h": -7.76},
      {"smiles": "CCOC(=O)N1CCN(c2nc(NCCO)c3ccccc3n2)CC1", "cytotoxicity at 70.5 h": -9.59},
      {"smiles": "CC(=O)c1ccc(-n2ccc3nc(N4CCCC4)ncc3c2=O)cc1", "cytotoxicity at 70.5 h": -5.08},
      {"smiles": "O=c1c2cnc(N3CCCC3)nc2ccn1-c1cccc(F)c1", "cytotoxicity at 70.5 h": -0.217},
      {"smiles": "CCCN1Cc2cc(Br)ccc2OCC1=O", "cytotoxicity at 70.5 h": 28.2},
      {"smiles": "CN(c1ncc(C(=O)NCc2ccccc2)c(N)n1)C1CCCCC1", "cytotoxicity at 70.5 h": 18},
      {"smiles": "CN(c1ncc(C(=O)Nc2ccccc2)c(N)n1)C1CCCCC1", "cytotoxicity at 70.5 h": -0.75},
      {"smiles": "COc1cc(OC)c(-n2nnc(C(=O)O)c2C)cc1Cl", "cytotoxicity at 70.5 h": 1.66},
      {"smiles": "CC(C)=CCC/C(C)=C/CC(C)(C)CNCc1ccco1", "cytotoxicity at 70.5 h": -1},
      {"smiles": "COc1ccc(OCC(=O)n2nc(C)c(C)c2C)cc1", "cytotoxicity at 70.5 h": 3.85},
      {"smiles": "CCOc1cc2c(cc1CCC(=O)O)CCC2", "cytotoxicity at 70.5 h": 7.85},
      {"smiles": "CCOc1cc2c(cc1C(=O)O)CCC2", "cytotoxicity at 70.5 h": 11.4},
      {"smiles": "Cc1cc(NCCO)nc(N2CCCC2)c1C#N", "cytotoxicity at 70.5 h": 2.8},
      {"smiles": "COCc1nc2nc(O)c3c(n2n1)NC(=O)CC3c1ccccc1Cl", "note": "(stereo not given)", "cytotoxicity at 70.5 h": 4.14},
      {"smiles": "CC(=O)N1CCc2nc3sc(C(N)=O)c(N)c3c(C(F)(F)F)c2C1", "cytotoxicity at 70.5 h": 6.92},
      {"smiles": "CC(=O)Nc1nc(-c2ccc(C)c(C)c2)c[nH]1", "cytotoxicity at 70.5 h": 0.35},
      {"smiles": "O=c1[nH]nc(-c2cccs2)c2sc(N3CCOCC3)nc12", "cytotoxicity at 70.5 h": -4.15},
      {"smiles": "Cc1nc(C#N)c(N2CCC(c3nc(-c4ccccc4)no3)CC2)o1", "cytotoxicity at 70.5 h": -4.24},
      {"smiles": "Oc1nnc(-c2cccs2)c2sc(N3CCCCC3)nc12", "cytotoxicity at 70.5 h": -1.82},
      {"smiles": "O=c1[nH]c2nc(N3CCCC3)ncc2c(=O)n1-c1cccc(F)c1", "cytotoxicity at 70.5 h": -16.9},
      {"smiles": "NC(=O)C1CCN(c2nc3nccc(-c4cccnc4)c3c(=O)[nH]2)CC1", "cytotoxicity at 70.5 h": -2.94},
      {"smiles": "CCN(c1ccc(C(=O)NCCCN2CCCCC2)cc1)S(=O)(=O)CC", "cytotoxicity at 70.5 h": -26.7},
      {"smiles": "COc1ccccc1C1CC(=O)Nc2nc(N3CCCCC3)sc21", "note": "(stereo not given)", "cytotoxicity at 70.5 h": -18.8},
      {"smiles": "O=C(NCc1ccccc1)c1nn(C2CCS(=O)(=O)C2)c2c1CCCC2", "note": "(stereo not given)", "cytotoxicity at 70.5 h": 4.17},
      {"smiles": "Nc1nc2c(s1)C(c1c(F)cccc1Cl)CC(=O)N2", "note": "(stereo not given)", "cytotoxicity at 70.5 h": 1.77},
      {"smiles": "CC(C)OCCCNC(=O)c1c(-n2cnnn2)sc2c1CCCC2", "cytotoxicity at 70.5 h": -25.4},
      {"smiles": "Cc1cc(O)c(OCC(=O)/N=c2\\[nH]c(C)c(C)s2)cn1", "cytotoxicity at 70.5 h": 5.16},
      {"smiles": "Cc1cc(O)c(OCC(=O)/N=c2/[nH]c3c(s2)CCC3)cn1", "cytotoxicity at 70.5 h": -14.7},
      {"smiles": "COc1ccc(C2SCC(=O)Nc3n[nH]cc32)c(OC)c1OC", "note": "(stereo not given)", "cytotoxicity at 70.5 h": 5.69},
      {"smiles": "O=C(c1cc(-n2cnnn2)ccc1Cl)N1CCOCC1", "cytotoxicity at 70.5 h": -21.4},
      {"smiles": "Cc1cc(O)c(OCC(=O)Nc2nc3c(s2)CCCCC3)cn1", "cytotoxicity at 70.5 h": -1.73},
      {"smiles": "CC(C)CNC(=O)c1c(-n2cnnn2)sc2c1CCCC2", "cytotoxicity at 70.5 h": -4.4},
      {"smiles": "COc1cccc(C2CC(=O)Nc3nc(N4CCCCC4)sc32)c1OC", "note": "(stereo not given)", "cytotoxicity at 70.5 h": -6.7},
      {"smiles": "O=C1CC(c2ccccc2Br)c2sc(N3CCOCC3)nc2N1", "note": "(stereo not given)", "cytotoxicity at 70.5 h": 2.49},
      {"smiles": "CC(C)Oc1ccccc1C1CC(=O)Nc2nc(N3CCOCC3)sc21", "note": "(stereo not given)", "cytotoxicity at 70.5 h": -13.2},
      {"smiles": "COc1ccc(OC)c(C2CC(=O)Nc3nc(N4CCOCC4)sc32)c1", "note": "(stereo not given)", "cytotoxicity at 70.5 h": 4.11},
      {"smiles": "COc1ccc(C2CC(=O)Nc3nc(N4CCOCC4)sc32)cc1", "note": "(stereo not given)", "cytotoxicity at 70.5 h": -6.38},
      {"smiles": "COCCCNC(=O)c1c(-n2cnnn2)sc2c1CCC2", "cytotoxicity at 70.5 h": -3.39},
      {"smiles": "Cn1ncc2c1NC(=O)CSC2c1ccccc1Cl", "note": "(stereo not given)", "cytotoxicity at 70.5 h": 14.7},
      {"smiles": "CC(C)CCn1[nH]c(CNc2ccc(Cl)cc2)nc1=O", "cytotoxicity at 70.5 h": 0.442},
      {"smiles": "CNc1nc2c(s1)C(c1cccc(Cl)c1Cl)CC(=O)N2", "note": "(stereo not given)", "cytotoxicity at 70.5 h": -8.56},
      {"smiles": "CNc1nc2c(s1)C(c1ccc(Cl)cc1Cl)CC(=O)N2", "note": "(stereo not given)", "cytotoxicity at 70.5 h": -5.21},
      {"smiles": "Cc1ccc(N2N=C(C(N)=O)S(=O)(=O)c3cccnc32)cc1", "cytotoxicity at 70.5 h": -2.2},
      {"smiles": "CCOc1cc(=O)n2c(c1C(=O)OCc1ccc(C)cc1)CCCC2", "cytotoxicity at 70.5 h": 24.4},
      {"smiles": "CC1CCN(c2ncc3c(n2)CN(c2ccccc2)C3=O)CC1", "cytotoxicity at 70.5 h": -9.08},
      {"smiles": "CCn1nccc1CNC(=O)NC1CCCCC1", "cytotoxicity at 70.5 h": 6.27},
      {"smiles": "Cc1cc(=O)n(CC(=O)NCC2CCCO2)c(-c2cccc(Cl)c2)n1", "note": "(stereo not given)", "cytotoxicity at 70.5 h": -2.89},
      {"smiles": "CCOC(=O)N1CCN(c2nc(NC3CC3)c3ccccc3n2)CC1", "cytotoxicity at 70.5 h": 3.06},
      {"smiles": "CNCc1ccc(OCc2ccc3c(c2)OCCO3)cc1", "cytotoxicity at 70.5 h": -3.57},
      {"smiles": "CC(C)(C)NCc1ccc(OCc2ccc3c(c2)OCCO3)cc1", "cytotoxicity at 70.5 h": 8.79},
      {"smiles": "CC(C)n1cnc2c1C(C(=O)N1CCOCC1)N(CC1CC1)CC2", "note": "(stereo not given)", "cytotoxicity at 70.5 h": -15.8},
      {"smiles": "Cc1cnc(N2C[C@@H]3CCN(CC(=O)N(C)C)C(=O)[C@H]3C2)nc1", "cytotoxicity at 70.5 h": 4.34},
      {"smiles": "CCN1C[C@@H]2CN(C(=O)NCc3ccccc3)CCC[C@]2(C(=O)O)C1", "cytotoxicity at 70.5 h": -15.2},
      {"smiles": "CCc1ccc(CN2CCc3c(nnn3C)C2COC)cc1", "note": "(stereo not given)", "cytotoxicity at 70.5 h": -5.54},
      {"smiles": "CN1C[C@@H]2CN(C(=O)NCc3ccccc3)CCC[C@]2(C(=O)O)C1", "cytotoxicity at 70.5 h": -1.78},
      {"smiles": "CC(C)N1C[C@@H]2CN(C(=O)NCc3ccccc3)CCC[C@]2(C(=O)O)C1", "cytotoxicity at 70.5 h": -4.97},
      {"smiles": "Cc1ccc(N2C[C@@H]3CN(Cc4csc(C)n4)CCO[C@@H]3C2)nn1", "cytotoxicity at 70.5 h": -2.48},
      {"smiles": "CN(C)c1nc(N2CCCC2)nc2c1CCN(C(=O)c1ccco1)CC2", "cytotoxicity at 70.5 h": -7.2}
    ]}
  ]
}
